Reference: PMC8578635 (Nature Communications, 2021)

Legend:
[1] = target: topoisomerase II beta (TOP2B) (Homo sapiens, UniProt Q02880); assay: kDNA decatenation and pBR322 relaxation assays with purified human topoisomerase II; format: biochemical
TOP2A [2] = target: T1, TOP2A (Homo sapiens, UniProt P11388); assay: as above
TOP2A [3] = target: T1, TOP2A; assay: kDNA decatenation and pBR322 relaxation assays with purified human topoisomerase II; supported by band depletion and RADAR TOP2cc assays in cells; format: biochemical
TOP2A [4] = target: T1, TOP2A; assay: kDNA decatenation and pBR322 relaxation assays with purified human topoisomerase II; band depletion in CHP-134 cells; format: biochemical

T1 sequence (P11388 whole entry): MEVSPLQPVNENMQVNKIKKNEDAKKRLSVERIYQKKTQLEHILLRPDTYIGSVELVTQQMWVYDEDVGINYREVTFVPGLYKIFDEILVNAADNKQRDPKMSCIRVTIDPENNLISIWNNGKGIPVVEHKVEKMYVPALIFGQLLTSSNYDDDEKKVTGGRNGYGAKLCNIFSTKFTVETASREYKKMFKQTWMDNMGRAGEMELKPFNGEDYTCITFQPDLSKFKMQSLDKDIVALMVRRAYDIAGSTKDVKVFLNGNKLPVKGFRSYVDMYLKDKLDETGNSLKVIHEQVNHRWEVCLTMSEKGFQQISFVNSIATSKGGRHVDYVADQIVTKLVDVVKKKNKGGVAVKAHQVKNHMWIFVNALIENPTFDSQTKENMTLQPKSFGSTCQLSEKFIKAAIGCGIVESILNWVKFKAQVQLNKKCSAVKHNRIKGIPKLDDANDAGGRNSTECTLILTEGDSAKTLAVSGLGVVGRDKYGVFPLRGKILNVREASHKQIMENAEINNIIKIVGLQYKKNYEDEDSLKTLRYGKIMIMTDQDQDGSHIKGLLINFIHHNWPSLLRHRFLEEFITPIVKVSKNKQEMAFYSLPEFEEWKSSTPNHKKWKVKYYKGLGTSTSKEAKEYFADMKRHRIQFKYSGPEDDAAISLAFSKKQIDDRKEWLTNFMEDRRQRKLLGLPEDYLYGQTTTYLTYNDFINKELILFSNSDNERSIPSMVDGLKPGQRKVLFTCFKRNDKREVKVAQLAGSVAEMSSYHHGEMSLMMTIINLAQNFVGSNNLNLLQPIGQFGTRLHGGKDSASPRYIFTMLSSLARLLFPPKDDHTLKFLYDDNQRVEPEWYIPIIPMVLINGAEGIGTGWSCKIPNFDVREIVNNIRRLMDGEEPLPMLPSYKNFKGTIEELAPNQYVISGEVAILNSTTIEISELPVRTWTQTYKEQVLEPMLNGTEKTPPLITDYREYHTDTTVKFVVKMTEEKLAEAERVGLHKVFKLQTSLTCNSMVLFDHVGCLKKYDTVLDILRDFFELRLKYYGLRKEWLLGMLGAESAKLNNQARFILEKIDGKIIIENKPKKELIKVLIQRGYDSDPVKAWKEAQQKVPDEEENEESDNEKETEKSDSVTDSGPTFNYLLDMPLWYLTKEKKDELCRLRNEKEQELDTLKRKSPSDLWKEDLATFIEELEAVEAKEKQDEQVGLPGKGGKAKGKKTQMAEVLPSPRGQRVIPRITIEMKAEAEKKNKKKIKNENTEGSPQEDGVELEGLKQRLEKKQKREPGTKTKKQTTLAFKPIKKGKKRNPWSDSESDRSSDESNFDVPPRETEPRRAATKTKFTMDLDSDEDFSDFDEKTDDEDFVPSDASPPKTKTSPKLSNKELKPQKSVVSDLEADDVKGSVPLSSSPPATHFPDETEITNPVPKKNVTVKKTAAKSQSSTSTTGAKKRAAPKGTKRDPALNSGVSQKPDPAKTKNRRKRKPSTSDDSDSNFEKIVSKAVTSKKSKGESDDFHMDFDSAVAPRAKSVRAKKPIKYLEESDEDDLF
Sequence of topoisomerase II beta (TOP2B) (Q02880 2-1626): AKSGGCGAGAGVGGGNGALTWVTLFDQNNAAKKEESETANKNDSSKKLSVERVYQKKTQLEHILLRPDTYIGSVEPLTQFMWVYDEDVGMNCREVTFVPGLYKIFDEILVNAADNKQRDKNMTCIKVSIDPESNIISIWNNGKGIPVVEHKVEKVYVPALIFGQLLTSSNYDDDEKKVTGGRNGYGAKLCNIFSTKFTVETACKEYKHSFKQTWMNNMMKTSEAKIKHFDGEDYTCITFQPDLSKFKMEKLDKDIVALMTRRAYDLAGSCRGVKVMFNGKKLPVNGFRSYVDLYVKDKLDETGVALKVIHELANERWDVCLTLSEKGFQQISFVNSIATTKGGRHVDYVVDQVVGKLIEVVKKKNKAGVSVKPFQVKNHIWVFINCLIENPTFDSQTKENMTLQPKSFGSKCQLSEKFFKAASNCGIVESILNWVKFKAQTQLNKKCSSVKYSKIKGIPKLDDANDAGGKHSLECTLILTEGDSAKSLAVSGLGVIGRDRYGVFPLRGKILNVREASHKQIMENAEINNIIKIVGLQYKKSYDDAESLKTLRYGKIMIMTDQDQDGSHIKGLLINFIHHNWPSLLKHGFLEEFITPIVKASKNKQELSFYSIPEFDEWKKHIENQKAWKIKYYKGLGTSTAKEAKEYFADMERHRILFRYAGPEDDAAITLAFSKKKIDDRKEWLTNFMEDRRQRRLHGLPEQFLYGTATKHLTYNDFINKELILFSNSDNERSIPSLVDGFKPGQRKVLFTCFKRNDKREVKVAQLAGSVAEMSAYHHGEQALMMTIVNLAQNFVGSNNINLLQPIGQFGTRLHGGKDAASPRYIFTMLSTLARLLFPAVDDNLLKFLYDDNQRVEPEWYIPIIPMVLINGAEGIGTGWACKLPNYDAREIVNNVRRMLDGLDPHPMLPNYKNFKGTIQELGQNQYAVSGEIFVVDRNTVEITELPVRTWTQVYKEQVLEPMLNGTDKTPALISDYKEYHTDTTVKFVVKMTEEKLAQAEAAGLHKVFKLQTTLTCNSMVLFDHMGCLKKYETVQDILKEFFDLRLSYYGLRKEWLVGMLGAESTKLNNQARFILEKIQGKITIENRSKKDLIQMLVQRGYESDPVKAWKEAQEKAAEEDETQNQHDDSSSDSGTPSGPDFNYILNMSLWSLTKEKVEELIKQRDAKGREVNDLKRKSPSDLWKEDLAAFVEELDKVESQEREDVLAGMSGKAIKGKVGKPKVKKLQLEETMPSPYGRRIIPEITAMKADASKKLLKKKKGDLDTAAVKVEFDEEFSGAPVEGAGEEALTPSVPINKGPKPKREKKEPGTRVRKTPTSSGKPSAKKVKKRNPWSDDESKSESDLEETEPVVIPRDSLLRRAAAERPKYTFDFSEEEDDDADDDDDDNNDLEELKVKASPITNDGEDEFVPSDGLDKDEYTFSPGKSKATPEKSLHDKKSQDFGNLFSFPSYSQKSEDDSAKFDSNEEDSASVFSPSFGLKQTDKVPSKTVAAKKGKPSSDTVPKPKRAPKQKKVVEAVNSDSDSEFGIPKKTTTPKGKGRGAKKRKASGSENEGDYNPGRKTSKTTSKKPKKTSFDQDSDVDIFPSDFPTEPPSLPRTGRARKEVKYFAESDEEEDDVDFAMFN

## COc1cc([C@@H]2c3cc4c(cc3[C@@H](O[C@@H]3O[C@@H]5CO[C@@H](C)O[C@H]5[C@H](O)[C@H]3O)[C@H]3COC(=O)[C@H]23)OCO4)cc(OC)c1O [etoposide]
[1]
  kDNA decatenation and pBR322 relaxation assays with purified human topoisomerase: Etoposide and doxorubicin had similar activity against both paralogs.
TOP2A [2]
  kDNA decatenation and pBR322 relaxation assays with purified human topoisomerase: Etoposide and doxorubicin had similar activity against both paralogs.

## Cc1cnc(CNC(=O)c2c(=O)c3ccc(N4CCCN(C)CC4)nc3n3c2sc2ccccc23)cn1 [CX-5461]
TOP2A [3]
  kDNA decatenation and pBR322 relaxation assays with purified human topoisomerase: CX-5461 inhibited the activity of both TOP2A and TOP2B—strikingly at concentrations substantially lower than etoposide

## COc1cccc2c1C(=O)c1c(O)c3c(c(O)c1C2=O)C[C@@](O)(C(=O)CO)C[C@@H]3O[C@H]1C[C@H](N)[C@H](O)[C@H](C)O1 [doxorubicin]
TOP2A [4]
  kDNA decatenation and pBR322 relaxation assays with purified human topoisomerase: Etoposide and doxorubicin had similar activity against both paralogs.
